Results on 28 compounds are retold here after patent publication US8063034B2, “Oxadiazole derivatives and thiadiazole derivatives having neovascularization inhibitory activity” (Santen Pharmaceutical Co., Ltd., priority 2007, dated 2011).

Structures are written as SMILES. Counter-ions that a name gives are not always drawn.

T1 sequence (P35968 790-1356 limits assumed): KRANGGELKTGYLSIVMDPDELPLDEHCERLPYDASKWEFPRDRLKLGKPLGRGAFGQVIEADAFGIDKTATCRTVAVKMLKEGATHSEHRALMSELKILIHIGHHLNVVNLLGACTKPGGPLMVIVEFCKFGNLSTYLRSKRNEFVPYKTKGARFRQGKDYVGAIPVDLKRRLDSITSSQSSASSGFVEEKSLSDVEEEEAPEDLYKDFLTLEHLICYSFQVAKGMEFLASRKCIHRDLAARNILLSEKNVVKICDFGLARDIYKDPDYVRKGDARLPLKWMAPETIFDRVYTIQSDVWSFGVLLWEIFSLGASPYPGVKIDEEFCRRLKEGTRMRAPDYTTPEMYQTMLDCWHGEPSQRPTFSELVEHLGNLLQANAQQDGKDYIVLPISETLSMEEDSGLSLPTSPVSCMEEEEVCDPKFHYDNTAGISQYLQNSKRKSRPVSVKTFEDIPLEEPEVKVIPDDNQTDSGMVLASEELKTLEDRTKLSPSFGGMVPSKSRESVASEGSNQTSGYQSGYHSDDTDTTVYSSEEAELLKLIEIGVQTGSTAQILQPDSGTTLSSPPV

The test has as its target T1, tyrosine kinase (KDR) (Homo sapiens, UniProt P35968).
T1 construct: purchased CARNABIO SCIENCE Co. Ltd. JAPAN
Nature of the test: Evaluation test of inhibitory effect of tyrosine kinase (KDR) activity, ELISA method (CARNABIO SCIENCE kit). The class given is biochemical. Particulars: 4 mg/L test compound, 1 μM ATP, substrate 250 nM, 1 hour at room temperature, absorbance 450 nm; read-out: tyrosine kinase inhibition rates (% inhibition). On the procedure: In order to find usefulness of the present compounds, a test of inhibitory effect of tyrosine kinase (KDR) activity was conducted on the present compounds using an evaluation system for kinase (KDR) inhibitory activity by way of the ELISA method which is the method for evaluating neovascularization inhibition effect of drugs, and the neovascularization inhibition effects were evaluated.
Evaluation Test of Inhibitory Effect of Tyrosine Kinase (KDR) Activity
As one of the widely-used methods of evaluating inhibitory effect of tyrosine kinase (KDR) activity by drugs, the ELISA method has been reported. The inhibitory effect of tyrosine kinase (KDR) activity of each of the present compounds was evaluated using the commercially available kit (purchased from CARNABIO SCIENCE Co. Ltd. JAPAN) for evaluating inhibitory effect of tyrosine kinase (KDR) activity.
(Preparation of Test Compound Solution)
Each test compound (2 mg) were dissolved in dimethyl sulfoxide (hereinafter abbreviated as DMSO), and the 2 mg/ml stock solution were prepared. Each obtained solution was diluted with 8 μL of DMSO. Each solution (0.4 mg/ml compound) was diluted 25 times with assay buffer to give the test compound solution. For the vehicle, 4% DMSO-Assay Buffer solution was prepared.
(Preparation of ATP/Substrate Solution)
Thaw commercially available ATP/Substrate (purchased from CARNABIO SCIENCE Co. Ltd. JAPAN), then 250 μL of it was added to 1 mL of assay buffer to give ATP/substrate solution. ATP/substrate solution was kept on ice before use.
(Preparation of Enzyme Solution)
7 μL of commercially available tyrosine kinase (purchased from CARNABIO SCIENCE Co. Ltd. JAPAN) was added to 2.793 mL of assay buffer to give enzyme solution. Enzyme solution was kept on ice before use.
(Preparation of Blocking Buffer)
BSA (Sigma, A-7030) was dissolved with wash buffer (50 mM Tris-HCl (pH7.5), 150 mM NaCl, 0.2% Tween-20) to give x100 BSA solution, and the solution was kept at −80° C. Thaw 400 μL of x100 BSA solution before use, it was added to 40 mL of wash buffer to give blocking buffer.
(Preparation of Detection Mixture)
40 μL of commercially available HRP-conjugated antibody (purchased from CARNABIO SCIENCE Co. Ltd. JAPAN) was added to 12 mL of blocking buffer to give detection mixture.
(Method of Test and Method of Measurement)
1) Add 10 μL of each test compound solution, 10 μL of ATP/substrate solution and 20 μL of enzyme solution to each well of ELISA plate (streptavidin-coated 96-well plate, PerkinElmer, 4009-0010). Incubate for 1 hour at room temperature (4 mg/L test compound solution, 15 mM Tris-HCl (pH7.5), 0.01% Tween 20, 2 mM DTT, concentration of substrate: 250 nM, 1 μM ATP, 5 mM Mg). For the vehicle, the above mentioned 4% DMSO-assay buffer solution was added instead of test compound solution.
2) Aspirate each well and wash with wash buffer, repeating the process three times for four washes.
3) Add 200 μL of blocking buffer to each well and cover the plate and incubate for 30 minutes.
4) Aspirate each well, add 100 μL of detection mixture to each well and incubate the plate for 30 minutes.
5) Aspirate each well and wash with wash buffer 4 times.
6) Add 100 μL of color reagent to each well. Incubate for 5 minutes and then add 0.1 M H2SO4 to each well.
7) Measure the absorbance of each well, using a plate reader set to […].
(Calculation of Kinase Inhibition Rate)
Rate of the reaction positive control well with kinase was considered 0% inhibition, rate of the reaction negative control well with assay buffer instead of kinase was considered 100% inhibition, and so the inhibition rates of test compound well were calculated based on the absorbance of them.
A: Absorbance of the reaction positive control well
B: Absorbance of the reaction negative control well
C: Absorbance of the test compound well
tyrosine kinase inhibition rates (%)=100 [1-(C-A)/(B-A)]
For orientation: ELISA stands for enzyme-linked immunosorbent assay.
Usually inhibition stands for the change of the read-out against control, counted positive when it falls. On to `c1ccc(Nc2nnc(-c3ccccc3OCc3ccncc3)o2)cc1` [Compound 1-1, N-Phenyl-5-(2-(pyridin-4-yl)methoxyphenyl)-1,3,4-oxadiazol-2-amine], for which the inhibition at 4 µg/mL amounted to 55%. On to `FC(F)(F)c1cccc(Nc2nnc(-c3ccccc3OCc3ccncc3)o2)c1` [Compound 1-3, 5-(2-(Pyridin-4-yl)methoxyphenyl)-N-(3-trifluoromethylphenyl)-1,3,4-oxadiazol-2-amine], for which the inhibition at 4 µg/mL came out at 80%.

Consider `c1ccc(Nc2nnc(-c3ccccc3OCc3ccnc4ccccc34)o2)cc1` [Compound 1-4, N-Phenyl-5-(2-(quinolin-4-yl)methoxyphenyl)-1,3,4-oxadiazol-2-amine], for which the inhibition at 4 µg/mL was found to be 75%. Then `CC(=O)Nc1cc(COc2ccccc2-c2nnc(Nc3ccccc3)o2)ccn1` [Compound 1-6, 5-(2-(2-Acetamidopyridin-4-yl)methoxyphenyl)-N-phenyl-1,3,4-oxadiazol-2-amine], with 65%; and `CC(C)(C)OC(=O)Nc1cc(CSc2ncccc2-c2nnc(Nc3ccccc3)o2)ccn1` [Compound 1-7, 5-(2-(2-t-Butoxycarbonylaminopyridin-4-yl)methylthiopyridin-3-yl)-N-phenyl-1,3,4-oxadiazol-2-amine], with 60%; and `c1ccc(Nc2nnc(-c3cccnc3SCc3ccncc3)o2)cc1` [Compound 1-10, N-Phenyl-5-(2-(pyridin-4-yl)methylthiopyridin-3-yl)-1,3,4-oxadiazol-2-amine], with 76%.

Consider `c1ccc(Nc2nnc(-c3cccnc3SCc3ccnc4ccccc34)o2)cc1` [Compound 1-13, N-Phenyl-5-(2-(quinolin-4-yl)methylthiopyridin-3-yl)-1,3,4-oxadiazol-2-amine], for which the inhibition at 4 µg/mL was determined as 72%.

Turning to `Clc1ccc(Nc2nnc(-c3cccnc3SCc3ccnc4ccccc34)o2)cc1` [Compound 1-14, N-(4-Chlorophenyl)-5-(2-(quinolin-4-yl)methylthiopyridin-3-yl)-1,3,4-oxadiazol-2-amine], the inhibition at 4 µg/mL stood at 90%. The value for `CC(=O)Nc1cc(CSc2ncccc2-c2nnc(Nc3ccccc3)o2)ccn1` [Compound 1-16, 5-(2-(2-Acetamidopyridin-4-yl)methylthiopyridin-3-yl)-N-phenyl-1,3,4-oxadiazol-2-amine] was 95%; that for `CC(=O)Nc1cc(CSc2ncccc2-c2nnc(Nc3ccc(Cl)cc3)o2)ccn1` [Compound 1-17, 5-(2-(2-Acetamidopyridin-4-yl)methylthiopyridin-3-yl)-N-(4-chlorophenyl)-1,3,4-oxadiazol-2-amine] was 94%; that for `CC(=O)Nc1cc(CSc2ncccc2-c2nnc(Nc3cccc(C(F)(F)F)c3)o2)ccn1` [Compound 1-18, 5-(2-(2-Acetamidopyridin-4-yl)methylthiopyridin-3-yl)-N-(3-trifluoromethylphenyl)-1,3,4-oxadiazol-2-amine] was 99%.

Consider `CNC(=O)c1cc(CSc2ncccc2-c2nnc(Nc3ccc(Cl)cc3)o2)ccn1` [Compound 1-20, N-(4-Chlorophenyl)-5-(2-(2-methylaminocarbonylpyridin-4-yl)methylthiopyridin-3-yl)-1,3,4-oxadiazol-2-amine], for which the inhibition at 4 µg/mL is 86%. As for `CNC(=O)c1cc(CSc2ncccc2-c2nnc(Nc3cccc(C(F)(F)F)c3)o2)ccn1` [Compound 1-21, 5-(2-(2-Methylaminocarbonylpyridin-4-yl)methylthiopyridin-3-yl)-N-(3-trifluoromethylphenyl)-1,3,4-oxadiazol-2-amine], the inhibition at 4 µg/mL stood at 93%. Turning to `c1ccc(Nc2nnc(-c3ccccc3SCc3ccncc3)o2)cc1` [Compound 1-32, N-Phenyl-5-(2-(pyridin-4-yl)methylthiophenyl)-1,3,4-oxadiazol-2-amine], the inhibition at 4 µg/mL worked out at 55%.

Turning to `FC(F)(F)c1cccc(Nc2nnc(-c3ccccc3SCc3ccncc3)o2)c1` [Compound 1-33, 5-(2-(Pyridin-4-yl)methylthiophenyl)-N-(3-trifluoromethylphenyl)-1,3,4-oxadiazol-2-amine], the inhibition at 4 µg/mL was 95%.

`CC(C)(C)c1ccc(Nc2nnc(-c3ccccc3SCc3ccncc3)o2)cc1` [Compound 1-34, N-(4-t-Butylphenyl)-5-(2-(pyridin-4-yl)methylthiophenyl)-1,3,4-oxadiazol-2-amine]: the inhibition at 4 µg/mL is 86%. Then `c1ccc(Nc2nnc(-c3ccccc3SCc3ccncc3)s2)cc1` [Compound 1-35, N-Phenyl-5-(2-(pyridin-4-yl)methylthiophenyl)-1,3,4-thiadiazol-2-amine], with 58%; and `Clc1ccc(Nc2nnc(-c3ccccc3SCc3ccncc3)s2)cc1` [Compound 1-36, N-(4-Chlorophenyl)-5-(2-(pyridin-4-yl)methylthiophenyl)-1,3,4-thiadiazol-2-amine], with 68%; and `Clc1cccc(Nc2nnc(-c3ccccc3SCc3ccncc3)s2)c1` [Compound 1-37, N-(3-Chlorophenyl)-5-(2-(pyridin-4-yl)methylthiophenyl)-1,3,4-thiadiazol-2-amine], with 84%. Turning to `FC(F)(F)c1ccc(Nc2nnc(-c3ccccc3SCc3ccncc3)s2)cc1` [Compound 1-38, 5-(2-(Pyridin-4-yl)methylthiophenyl)-N-(4-trifluoromethylphenyl)-1,3,4-thiadiazole-2-amine], the inhibition at 4 µg/mL was determined as 53%. The value for `CC(C)(C)c1ccc(Nc2nnc(-c3ccccc3SCc3ccncc3)s2)cc1` [Compound 1-39, N-(4-t-Butylphenyl)-5-(2-(pyridin-4-yl)methylthiophenyl)-1,3,4-thiadiazol-2-amine] was 43%; that for `c1ccc(Nc2nnc(-c3ccccc3SCc3ccnc4ccccc34)o2)cc1` [Compound 1-40, N-Phenyl-5-(2-(quinolin-4-yl)methylthiophenyl)-1,3,4-oxadiazol-2-amine] was 88%; that for `Clc1ccc(Nc2nnc(-c3ccccc3SCc3ccncc3)o2)cc1` [Compound 1-41, N-(4-Chlorophenyl)-5-(2-(pyridin-4-yl)methylthiophenyl)-1,3,4-oxadiazol-2-amine] was 82%. As to `CC(=O)Nc1cc(CSc2ccccc2-c2nnc(Nc3ccc(Cl)cc3)o2)ccn1` [Compound 1-45], the inhibition at 4 µg/mL is 91%. Then `CC(=O)Nc1cc(CSc2ccccc2-c2nnc(Nc3cccc(C(F)(F)F)c3)o2)ccn1` [Compound 1-46, 5-(2-(2-Acetamidopyridin-4-yl)methylthiophenyl)-N-(3-trifluoromethylphenyl)-1,3,4-oxadiazol-2-amine], with 98%; and `Nc1nccc(CSc2ccccc2-c2nnc(Nc3ccccc3)o2)n1` [Compound 1-47, 5-(2-(2-Aminopyrimidin-4-yl)methylthiophenyl)-N-phenyl-1,3,4-oxadiazol-2-amine], with 75%.

In the case of `Nc1cc(CSc2ncccc2-c2nnc(Nc3ccc(Cl)cc3)o2)ccn1` [Compound 1-91, 5-(2-(2-Aminopyridin-4-yl)methylthiopyridin-3-yl)-N-(4-chlorophenyl)-1,3,4-oxadiazol-2-amine hydrochloride], the inhibition at 4 µg/mL came to 86%. As for `Nc1cc(CSc2ncccc2-c2nnc(Nc3cccc(C(F)(F)F)c3)o2)ccn1` [Compound 1-92, 5-(2-(2-Aminopyridin-4-yl)methylthiopyridin-3-yl)-N-(3-trifluoromethylphenyl)-1,3,4-oxadiazol-2-amine hydrochloride], the inhibition at 4 µg/mL worked out at 98%.
